The values that follow come from patent US10106526B2, “Inhibitors of cyclin-dependent kinase 7 (CDK7)” (SYROS PHARMACEUTICALS, INC., priority 2014, dated 2018).

SMILES strings stand for the structures. Some results are limits rather than exact numbers.

Usually IC50 stands for the midpoint of a concentration-inhibition curve.

The target of one assay is T1, CDK7 (Homo sapiens, UniProt P50613).
T1 construct: purchased Life Technologies (Adapta kinase assay service)
Put plainly: CDK7 kinase activity, Adapta kinase assay (Life Technologies). It is filed as biochemical. The note with it: Adapta kinase assay at Life Technologies; 10 μM down to 0.514 nM, 3-fold serial dilutions; read-out: CDK7 Inhibition (IC50). The procedure, abridged:
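Adapta kinase activity assay run as a commercial service; substrates not specified here. Compounds tested in 3-fold serial dilutions from 10 μM down to 0.514 nM.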

In assay [1] the target is CDK7/Cyclin H/MAT1 trimeric complex (Homo sapiens, UniProt P50613). Put plainly: CDK7 kinase assay, Caliper/LabChip EZ Reader (Biortus Biosciences). It is filed as biochemical. The note with it: CDK7/Cyclin H/MAT1 10 nM, ATP 2 mM, FAM-CDK7tide 2 μM, 30 min incubation, read-out: CDK7 Inhibition (IC50). On the procedure: Compounds of the invention were further assayed for CDK7 activity at Biortus Biosciences (Jiangyin, Jiangsu Province, P.R. of China) using a CDK7 kinase assay developed with a Caliper/LabChip EZ Reader (Perkin Elmer, Waltham, Mass.). […] The incubation period was chosen such that the total fraction of phosphorylated peptide product produced was <20% for the uninhibited kinase.

The next assay has as its system A673 cells. Put plainly: Inhibition of proliferation of A673 cells (CyQUANT, 72 hour). It is filed as cell-based, human. Particulars: 72 hour proliferation. The procedure, abridged: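 Human Ewing's sarcoma A673 cells in DMEM + 10% FBS + 1 mM sodium pyruvate, 37 °C, 5% CO2, exposed to compounds from 4 μM to 126.4 pM (0.5 log dilutions) for 72 h. Proliferation read by CyQUANT; IC50 reported as binned categories.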

CDK7/Cyclin H/MAT1 trimeric complex, sequence (P50613 whole entry): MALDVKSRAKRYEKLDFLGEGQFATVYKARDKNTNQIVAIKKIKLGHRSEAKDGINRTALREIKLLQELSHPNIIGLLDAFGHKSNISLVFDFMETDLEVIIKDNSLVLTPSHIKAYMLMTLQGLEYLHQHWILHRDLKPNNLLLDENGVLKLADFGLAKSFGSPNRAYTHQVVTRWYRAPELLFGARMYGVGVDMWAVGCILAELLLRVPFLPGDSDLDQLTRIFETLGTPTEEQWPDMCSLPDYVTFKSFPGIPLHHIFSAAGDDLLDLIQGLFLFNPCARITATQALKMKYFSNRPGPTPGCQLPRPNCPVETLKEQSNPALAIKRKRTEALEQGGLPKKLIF
CDK7/Cyclin H/MAT1 trimeric complex, sequence (P51946 whole entry partner): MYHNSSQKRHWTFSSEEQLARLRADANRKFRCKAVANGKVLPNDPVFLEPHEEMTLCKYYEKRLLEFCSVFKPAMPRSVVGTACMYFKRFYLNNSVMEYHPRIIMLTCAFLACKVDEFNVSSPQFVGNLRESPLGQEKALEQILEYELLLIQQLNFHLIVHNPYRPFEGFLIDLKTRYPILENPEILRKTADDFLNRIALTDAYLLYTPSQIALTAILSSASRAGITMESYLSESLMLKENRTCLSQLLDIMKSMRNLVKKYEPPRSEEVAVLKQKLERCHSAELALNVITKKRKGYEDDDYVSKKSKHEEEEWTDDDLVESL
CDK7/Cyclin H/MAT1 trimeric complex, sequence (P51948 whole entry partner): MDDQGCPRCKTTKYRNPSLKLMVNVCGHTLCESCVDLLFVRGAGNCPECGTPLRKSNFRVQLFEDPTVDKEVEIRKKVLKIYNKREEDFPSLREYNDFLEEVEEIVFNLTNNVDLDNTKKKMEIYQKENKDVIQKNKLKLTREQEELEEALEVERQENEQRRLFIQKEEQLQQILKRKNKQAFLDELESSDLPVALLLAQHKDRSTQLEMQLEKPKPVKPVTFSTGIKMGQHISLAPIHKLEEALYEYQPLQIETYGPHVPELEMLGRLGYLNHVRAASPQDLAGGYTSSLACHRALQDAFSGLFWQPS
T1 sequence (P50613 whole entry): as the sequence (P50613 whole entry) above
T1 sequence (P51946 whole entry partner): as the sequence (P51946 whole entry partner) above
T1 sequence (P51948 whole entry partner): as the sequence (P51948 whole entry partner) above

With `CN(C)CC=CC(=O)N1CC(N(C)C2CCCC(Nc3ncc(Cl)c(-c4c[nH]c5ccccc45)n3)C2)C1` (stereo not shown) [Compound 231], the IC50 (on CDK7; in assay [1]) was less than 0.1 µM in each case.

With `C=CC(=O)N[C@H]1CCN([C@H]2CCC[C@@H](Nc3ncc(Cl)c(-c4c[nH]c5ccccc45)n3)C2)C1` [Compound 370, N—((S)-1-((1S,3R)-3-((5-chloro-4-(1H-indol-3-yl)pyrimidin-2-yl)amino)cyclohexyl)pyrrolidin-3-yl)acrylamide], the values for the IC50 (with A673 cells (Homo sapiens); in assay [1]) were less than 0.5 µM and less than 0.1 µM, respectively.

For the molecule `C=CC(=O)N1CCN([C@H]2CCC[C@@H](Nc3ncc(Cl)c(-c4c[nH]c5ccc(OC)cc45)n3)C2)CC1` [Compound 375, 1-(4-((1S,3R)-3-(5-chloro-4-(5-methoxy-1H-indol-3-yl)pyrimidin-2-ylamino)cyclohexyl)piperazin-1-yl)prop-2-en-1-One], the IC50 in the assay on A673 cells (Homo sapiens) was less than 0.5 µM; in assay [1] it was greater than 1 µM.

As for `CN(C)C/C=C/C(=O)Nc1ccc(CN(C)[C@H]2CCC[C@@H](Nc3ncc(Cl)c(-c4c[nH]c5ccccc45)n3)C2)nc1` [Compound 377, (E)-N-(6-((((1S,3R)-3-((5-chloro-4-(1H-indol-3-yl)pyrimidin-2-yl)amino)cyclohexyl)(methyl)amino)methyl)pyridin-3-yl)-4-(dimethylamino)but-2-enamide], the values for the IC50 (with A673 cells (Homo sapiens); in assay [1]) were less than 0.5 µM and less than 0.1 µM, respectively.

In the case of `CN(C)C/C=C/C(=O)N(C)c1ccc(CN[C@H]2CCC[C@@H](Nc3ncc(Cl)c(-c4c[nH]c5ccccc45)n3)C2)nc1` [Compound 390, (E)-N-(6-((((1S,3R)-3-((5-chloro-4-(1H-indol-3-yl)pyrimidin-2-yl)amino)cyclohexyl)amino)methyl)pyridin-3-yl)-4-(dimethylamino)-N-methylbut-2-enamide], the IC50 was less than 0.5 µM with A673 cells (Homo sapiens) and less than 0.1 µM in assay [1].

With `CN(C)C/C=C/C(=O)Nc1ccc(C(=O)N[C@@]2(C)CCC[C@@H](Nc3ncc(C(F)(F)F)c(-c4c[nH]c5ccccc45)n3)C2)nc1` [Compound 399, 5-[[(E)-4-(dimethylamino)but-2-enoyl]amino]-N-[(1S,3R)-3-[[4-(1H-indol-3-yl)-5-(trifluoromethyl)pyrimidin-2-yl]amino]-1-methyl-cyclohexyl]pyridine-2-carboxamide], the half-inhibitory concentration (IC50) with A673 cells (Homo sapiens) is less than 0.5 µM; in assay [1], less than 0.1 µM.

Consider `CN(C)C/C=C/C(=O)Nc1ccc(CN[C@@]2(C)CCC[C@@H](Nc3ncc(C(F)(F)F)c(-c4c[nH]c5ccccc45)n3)C2)nc1` [Compound 403, (E)-4-(dimethylamino)-N-[6-[[[(1S,3R)-3-[[4-(1H-indol-3-yl)-5-(trifluoromethyl)pyrimidin-2-yl]amino]-1-methylcyclohexyl]amino]methyl]-3-pyridyl]but-2-enamide], for which the IC50 with A673 cells (Homo sapiens) is less than 0.5 µM; in assay [1], less than 0.1 µM.

Turning to `CCc1cnc(N[C@@H]2CCC[C@](C)(NC(=O)c3ccc(NC(=O)/C=C/CN(C)C)cn3)C2)nc1-c1c[nH]c2ccccc12` [Compound 407, 5-[[(E)-4-(dimethylamino)but-2-enoyl]amino]-N-[(1S,3R)-3-[[5-ethyl-4-(1H-indol-3-yl)pyrimidin-2-yl]amino]-1-methyl-cyclohexyl]pyridine-2-carboxamide], the IC50 with A673 cells (Homo sapiens) was less than 0.5 µM; in assay [1], less than 0.1 µM.

For the molecule `C=CC(=O)N1CCN([C@]23CCC[C@](Nc4ncc(Cl)c(-c5c[nH]c6ccccc56)n4)(CC2)C3)CC1` [Compound 408, 1-(4-((1R,5S)-5-(5-Chloro-4-(1H-indol-3-yl)pyrimidin-2-ylamino)bicyclo[3.2.1]octan-1-yl)piperazin-1-yl)prop-2-en-1-One], the IC50 with A673 cells (Homo sapiens) was less than 0.5 µM; in assay [1], less than 0.1 µM.

Consider `C=CC(=O)N1CCN([C@@]23CCC[C@@](Nc4ncc(Cl)c(-c5c[nH]c6ccccc56)n4)(CC2)C3)CC1` [Compound 409, 1-(4-((1S,5R)-5-(5-chloro-4-(1H-indol-3-yl)pyrimidin-2-ylamino)bicyclo[3.2.1]octan-1-yl)piperazin-1-yl)prop-2-en-1-One], for which the half-inhibitory concentration (IC50) is less than 0.5 µM in the assay on A673 cells (Homo sapiens) and less than 0.1 µM in assay [1].

Take `CCc1cnc(N[C@@H]2CCC[C@](C)(NCc3ccc(NC(=O)/C=C/CN(C)C)cn3)C2)nc1-c1c[nH]c2ccccc12` [Compound 411, (E)-4-(dimethylamino)-N-[6-[[[(1S,3R)-3-[[5-ethyl-4-(1H-indol-3-yl)pyrimidin-2-yl]amino]-1-methylcyclohexyl]amino]methyl]-3-pyridyl]but-2-enamide]: the IC50 was less than 0.5 µM in the assay on A673 cells (Homo sapiens) and less than 0.1 µM in assay [1].

In the case of `CCc1cnc(N[C@@H]2CCC[C@](C)(NC(=O)c3ccc(NC(=O)/C=C/CN(C)C)cn3)C2)nc1-c1c(C)[nH]c2ccccc12` [Compound 412, 5-[[(E)-4-(dimethylamino)but-2-enoyl]amino]-N-[(1S,3R)-3-[[5-ethyl-4-(2-methyl-1H-indol-3-yl)pyrimidin-2-yl]amino]-1-methyl-cyclohexyl]pyridine-2-carboxamide], the IC50 is less than 0.5 µM in the assay with A673 cells (Homo sapiens) and 0.1 to 1 µM in assay [1].

With `CCc1cnc(N[C@@H]2CCC[C@](C)(NCc3ccc(NC(=O)/C=C/CN(C)C)cn3)C2)nc1-c1n[nH]c2ccccc12` [Compound 413, (E)-4-(dimethylamino)-N-[6-[[[(1S,3R)-3-[[5-ethyl-4-(1H-indazol-3-yl)pyrimidin-2-yl]amino]-1-methyl-cyclohexyl]amino]methyl]-3-pyridyl]but-2-enamide], the IC50 was less than 0.5 µM in the assay with A673 cells (Homo sapiens) and less than 0.1 µM in assay [1].

For `C=CC(=O)N1CCN([C@H]2CCC[C@@H](Nc3ncc(Cl)c(-c4cnc5ccccn45)n3)C2)CC1` [Compound 414, 1-[4-[(1S,3R)-3-[(5-chloro-4-imidazo[1,2-a]pyridin-3-yl-pyrimidin-2-yl)amino]cyclohexyl]piperazin-1-yl]prop-2-en-1-One], the IC50 with A673 cells (Homo sapiens) was less than 0.5 µM; in assay [1], 0.1 to 1 µM.

`CN(C)C/C=C/C(=O)N1CCC[C@@H](NCc2ccc(Nc3ncc(Cl)c(-c4c[nH]c5ccccc45)n3)cc2)C1` [Compound 415, (R,E)-1-(3-((4-((5-chloro-4-(1H-indol-3-yl)pyrimidin-2-yl)amino)benzyl)amino)piperidin-1-yl)-4-(dimethylamino)but-2-en-1-One]: the concentration for half-maximal inhibition (IC50) in the assay with A673 cells (Homo sapiens) was less than 0.5 µM; in assay [1], less than 0.1 µM.

Take `C=CC(=O)N1CCN([C@H]2CCC[C@@H](Nc3ncc(Cl)c(-c4n[nH]c5ccccc45)n3)C2)CC1` [compound 388]: the IC50 with A673 cells was less than 0.5 µM; in assay [1], 0.1 to 1 µM.

With `CN(C)C/C=C/C(=O)N1CCCC(N2CC(Nc3ncc(Cl)c(-c4c[nH]c5ccccc45)n3)C2)C1` (stereo not shown) [compound 389], the IC50 is less than 0.5 µM in the assay on A673 cells and greater than 1 µM in assay [1].

With `C=CC(=O)N1CC(F)(F)C[C@H]1C(=O)N[C@H]1CCC[C@@H](Nc2ncc(Cl)c(-c3n[nH]c4ccccc34)n2)C1` [compound 391], the IC50 in the assay on A673 cells was less than 0.5 µM; in assay [1] it was less than 0.1 µM.

Regarding `C=CC(=O)N1CC(F)(F)C[C@H]1C(=O)N[C@H]1CCC[C@@H](Nc2ncc(C#N)c(-c3c[nH]c4ccccc34)n2)C1` [compound 392], the IC50 was less than 0.5 µM in the assay with A673 cells and less than 0.1 µM in assay [1].

`C=CC(=O)N1CCC[C@@H](NCc2ccc(Nc3ncc(Cl)c(-c4c[nH]c5ccccc45)n3)cc2)C1` [compound 393]: the figures for the half-inhibitory concentration (IC50) (in the assay on A673 cells; in assay [1]) were less than 0.5 µM and less than 0.1 µM, respectively.

Consider `CN(C)C/C=C/C(=O)N1CC(F)(F)C[C@H]1C(=O)N[C@H]1CCC[C@@H](Nc2ncc(Cl)c(-c3c[nH]c4ccccc34)n2)C1` [compound 394], for which the results for the IC50 (with A673 cells; in assay [1]) were less than 0.5 µM and less than 0.1 µM, respectively.

Regarding `C=CC(=O)N1CCN([C@H]2CCC[C@@H](Nc3ncc(Cl)c(-c4c[nH]c5c(OC)cccc45)n3)C2)CC1` [compound 395], the IC50 in the assay on A673 cells is less than 0.5 µM; in assay [1], 0.1 to 1 µM.

`CN(C)C/C=C/C(=O)N1CC(F)(F)C[C@H]1C(=O)N[C@H]1CCC[C@@H](Nc2ncc(C#N)c(-c3c[nH]c4ccccc34)n2)C1` [compound 396]: the values for the half-maximal inhibitory concentration (IC50) (in the assay with A673 cells; in assay [1]) were less than 0.5 µM and less than 0.1 µM, respectively.

With `CN(C)C/C=C/C(=O)N1CCN([C@H]2CCC[C@@H](Nc3ncc(Cl)c(-c4cnc5ccccn45)n3)C2)CC1` [compound 400], the figures for the IC50 (in the assay on A673 cells; in assay [1]) were less than 0.5 µM and less than 0.1 µM, respectively.

On to `C=C(F)C(=O)N1CCN([C@H]2CCC[C@@H](Nc3ncc(Cl)c(-c4c[nH]c5ccccc45)n3)C2)CC1` [compound 401], for which the values for the IC50 (in the assay on A673 cells; in assay [1]) were less than 0.5 µM and less than 0.1 µM, respectively.

On to `C=C(F)C(=O)Nc1ccc(C(=O)N[C@H]2CCC[C@@H](Nc3ncc(Cl)c(-c4c[nH]c5ccccc45)n3)C2)nc1` [compound 402], for which the IC50 was less than 0.5 µM with A673 cells and 0.1 to 1 µM in assay [1].

Turning to `CN(C)C/C=C/C(=O)N1CC(F)(F)C[C@H]1C(=O)N[C@H]1CCC[C@@H](Nc2ncc(Cl)c(-c3n[nH]c4ccccc34)n2)C1` [compound 404], the IC50 in the assay with A673 cells is less than 0.5 µM; in assay [1] it was less than 0.1 µM.

With `C=CC(=O)Nc1cnc(CN[C@H]2CCC[C@@H](Nc3ncc(Cl)c(-c4n[nH]c5ccccc45)n3)C2)nc1` [compound 405], the IC50 with A673 cells is less than 0.5 µM; in assay [1] it was less than 0.1 µM.

For `C=CC(=O)N1CCN([C@H]2CCC[C@@H](Nc3ncc(Cl)c(-c4c[nH]c5ccccc45)n3)C2)C(=O)C1` [compound 410], the IC50 with A673 cells is less than 0.5 µM; in assay [1], less than 0.1 µM.
